According to publication PMC8113459, “Selective inhibition of cullin 3 neddylation through covalent targeting DCN1 protects mice from acetaminophen-induced liver toxicity” (Nature Communications, 2021):
“And” between values parts separate entries of the source, which are not always exact repeats. Equal values may be shown once.

Tests used:
[1] = test system: APAP-induced liver injury; assay: APAP-induced liver injury: alanine aminotransferase (ALT) level; type: in vivo, mouse; details: single dose 400 mg/kg, IP
Description: (§1) The in vivo studies were performed under animal protocols (PRO00007499) and (PRO00006638) approved by the Institutional Animal Care & Use Committee of the University of Michigan, in accordance with the recommendations in the Guide for the Care and Use of Laboratory Animals of the National Institutes of Health. C57BL/6 WT mice (~8 weeks, male, normal chow) were purchased from the Jackson Laboratory and randomly divided into eight groups (8–9 mice per group) treated (IP) as follows: phosphate-buffered saline vehicle once per day for 3 days (G1), APAP alone a single dose at 400 mg/kg on day 1 (G2), DI-1859 alone 25 mg/kg once per day for 3 days (G3), DI-1859 alone 50 mg/kg once per day for 3 days (G4), pretreatment (1 day before the APAP administration) with DI-1859 at 25 mg/kg once per day for 3 days followed with APAP at 400 mg/kg on day (G5), pretreatment (1 day before the APAP administration) with DI-1859 at 50 mg/kg once per day for 3 days followed with APAP at 400 mg/kg on day (G6), APAP a single dose at 400 mg/kg (3 h before the first DI-1859 administration) followed with DI-1859 at 25 mg/Kg once per day for 3 days (G7), and APAP a single dose at 400 mg/kg (3 h before the first DI-1859 administration) followed with DI-1859 at 50 mg/Kg once per day for 3 days (G8).
(§2) To induce acute liver injury, animals received PBS or APAP (400 mg/kg, sigma, A7085) through I.P. injection at 12 p.m. and were sacrificed 48 h afterward. To examine the protective effect of DI-1859 (groups 5 and 6), animals were I.P. injected with compound for 3 consecutive days (9 a.m. on each day, starting 1 day before APAP administration). To examine the restorative effect of DI-1859 (groups 7 and 8), animals were I.P. injected with compound 3 h after APAP administration followed by two additional treatments (9 a.m. on the next 2 days). Body weight and blood glucose level measurement, along with blood sample collection, were performed at 12 p.m. on each day.
Blood glucose levels were determined using glucometers (Bayer Corp., Pittsburgh, PA). Plasma ALT activity was measured using an ALT reagent set (Pointe Scientific Inc., Canton, MI).

[2] = test system: APAP-induced liver injury; assay: APAP-induced liver injury: ROS assay in liver tissue; type: in vivo, mouse; details: G2: APAP 400 mg/kg, a single dose
Description: as §1, §2
Liver samples were homogenized in a lysis buffer and mixed with a dichlorofluorescein diacetate fluorescent probe (DCF, Sigma, D6883) to a final probe concentration of 5 µM for 1 h at 37 °C. DCF fluorescence was measured using a BioTek Synergy 2 Multi-Mode Microplate Reader (485 nm excitation and 527 nm emission).

U2OS cells = assay: Cell viability assay (WST-8), U2OS; type: cell-based, human; details: for cell viability relative to control: replicates
Description: (§3) Cell viability assay was performed as previously described. The effect of DCN1 inhibitors on cell growth was evaluated by a WST-8 [2-(2-methoxy-4-nitrophenyl)-3-(4-nitrophenyl)-5-(2,4-disulfophenyl)-2H-tetrazolium, monosodium salt assay (Dojindo Molecular Technologies, Inc). Cells (2000–3000 cells in each well) were seeded in 96-well tissue culture plates in medium (100 μL) and treated with serial dilution of DCN1 inhibitors for 3 days. At the end of incubation, WST-8 dye (20 μL) was added to each well and incubated for 1–3 h, then the absorbance was measured in a microplate reader (Molecular Devices) at 450 nm. Cell growth inhibition was evaluated as the ratio of the absorbance of the sample to that of the control. The values were inserted into Prism software, and the curves and the EC50 values were produced by Prism software.

[3] = Cell viability assay (WST-8), MDA-MB-231; type: cell-based, human; details: human, MDA-MB-231 cells, replicates, read-out: cell viability relative to control
Description: as §3

MDA-MB-231 cells = assay: Cell viability assay (WST-8), MDA-MB-231; type: cell-based, human; details: for cell viability relative to control: replicates
Description: as §3

[4] = Cell viability assay (WST-8), HCT116; type: cell-based, human; details: human, HCT116 cells, replicates, read-out: cell viability relative to control
Description: as §3

HCT116 cells = assay: Cell viability assay (WST-8), HCT116; type: cell-based, human; details: for cell viability relative to control: replicates
Description: as §3

neddylation of cullin 3 [5] = assay: Western blot, cullin 3 neddylation in cells of different tissue types (U2OS, THLE2, MDA-MB-231, KYSE70, HCT116); type: cell-based, human
Description: (§4) Western blotting was performed as described previously. Treated cells were lysed by RIPA buffer supplemented with protease inhibitor. The expression level of indicated proteins was examined by immunoblotting analysis and GAPDH was used as the loading control. Antibodies were purchased commercially: cullin 1 (sc-17775, 1:500 dilution) and cullin 2 (sc-166506, 1:500 dilution) from Santa Cruz Biotech (Santa Cruz, CA); cullin 4A (PA5-14542, 1:1000 dilution), cullin 4B (PA5-50647, 1:1000 dilution), and DCN3 (DCUN1D3, PA5-44000, 1:1000 dilution) from Thermo Fisher Scientific (Wayne, MI); cullin 3 (2759, 1:1000), NRF2 (12721, 1:1000 dilution), HO-1 (70081, 1:1000 dilution), and Bim (2819, 1:1000 dilution) from Cell Signaling Technology (Boston, MA); DCN1 (GWB-E3D700, 1:1000 dilution) from GenWay Biotech (San Diego, CA); and cullin 5 (A302-173A, 1:500 dilution) from Bethyl Labs (Montgomery, TX). Results are representative of two independent experiments.

NRF2 protein = assay: Western blot, NRF2 protein accumulation in cells; type: cell-based, human; details: 100 nM
Description: as §4

DCN1 = DCN1 (Homo sapiens, UniProt Q96GG9); assay: Intact-protein mass spectrometric analysis of covalent complex formation, Method A; type: binding; details: for Percentage of the formation of covalent complex with DCN1 protein: 37 °C
Description: MassHunter Qualitative Analysis software (Agilent) was used to analyze the data. Intact protein masses were obtained using the maximum entropy deconvolution algorithm. The mass spectrometry data in Supplementary Figs. 1–11 were generated by Method A.

neddylation of cullin 3 [6] = assay: Western blot, cullin 3 neddylation in U2OS cells; type: cell-based, human; details: 24 h, Fig. 1c
Description: as §4

[7] = 10 min incubation, 1.2-fold excess inhibitor

DCN1, sequence (Q96GG9 58-259 limits assumed): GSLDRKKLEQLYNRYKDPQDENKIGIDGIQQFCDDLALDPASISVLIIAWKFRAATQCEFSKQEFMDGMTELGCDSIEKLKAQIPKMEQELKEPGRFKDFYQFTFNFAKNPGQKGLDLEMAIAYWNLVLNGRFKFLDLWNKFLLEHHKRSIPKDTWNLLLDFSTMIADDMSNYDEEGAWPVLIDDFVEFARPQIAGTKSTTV

CC(=O)Nc1ccc(O)cc1 [APAP, acetaminophen]
hepatotoxicity in mice [1]: induced severe hepatotoxicity
ROS level in mouse liver tissue, mean [2]: 12.4435 A.U./ug
ROS level normalised to the mean of G1 (vehicle), mean [2]: 1.645

CCC(=O)N[C@@H](Cc1nc2ccc(C(C)C)cc2s1)C(=O)N[C@H](CNC(=O)CCN1CCOCC1)C1CCCCC1 [DI-591]
EC50 (U2OS cells; Homo sapiens, U2OS, 72 h, read-out: EC50, cell growth inhibition): > 1 µM
cell viability relative to control (U2OS cells; conc 10, 72 h): 113.521 and 92.8169 and 93.8028
cell viability relative to control (U2OS cells; conc 30, 72 h): 110.282 and 96.9014 and 89.8591
cell viability relative to control (U2OS cells; conc 100, 72 h): 112.958 and 95.2113 and 89.4366
cell viability relative to control (U2OS cells; conc 300, 72 h): 115.211 and 91.5493 and 99.0141
cell viability relative to control (U2OS cells; conc 1000, 72 h): 84.9296 and 111.127 and 85.7746
viability at 72 h ([3]; conc 10, 72 h): 94.3%
viability at 72 h ([3]; conc 30, 72 h): 113%
viability at 72 h ([3]; conc 100, 72 h): 109%
viability at 72 h ([3]; conc 300, 72 h): 105%
viability at 72 h ([3]; conc 1000, 72 h): 94.9%
EC50 (MDA-MB-231 cells; Homo sapiens, MDA-MB-231, 72 h, read-out: EC50, cell growth inhibition): > 1 µM
cell viability relative to control (MDA-MB-231 cells; conc 10, 72 h): 101.954 and 101.609
cell viability relative to control (MDA-MB-231 cells; conc 30, 72 h): 108.276 and 97.3563
cell viability relative to control (MDA-MB-231 cells; conc 100, 72 h): 100.345 and 97.5862
cell viability relative to control (MDA-MB-231 cells; conc 300, 72 h): 105.517 and 106.667
cell viability relative to control (MDA-MB-231 cells; conc 1000, 72 h): 102.644
viability at 72 h ([4]; conc 3, 72 h): 106%
viability at 72 h ([4]; conc 10, 72 h): 94.3%
viability at 72 h ([4]; conc 30, 72 h): 90%
viability at 72 h ([4]; conc 1000, 72 h): 94.3%
EC50 (HCT116 cells; Homo sapiens, HCT-116, 72 h, read-out: EC50, cell growth inhibition): > 1 µM
cell viability relative to control (HCT116 cells; conc 3, 72 h): 106.068 and 106.647
cell viability relative to control (HCT116 cells; conc 10, 72 h): 94.7863 and 106.766
cell viability relative to control (HCT116 cells; conc 30, 72 h): 103.675 and 96.2874
cell viability relative to control (HCT116 cells; conc 100, 72 h): 92.6577 and 103.333 and 79.1617
cell viability relative to control (HCT116 cells; conc 300, 72 h): 90.9009 and 107.521 and 85.6886
cell viability relative to control (HCT116 cells; conc 1000, 72 h): 100.085 and 92.0359

C=C(CN(C)C)C(=O)NC[C@H](NC(=O)[C@@H](Cc1nc2ccc(C(C)C)cc2s1)NC(=O)CC)C1CCCCC1 [DI-1859DD]
times less potent than DI-1548 and DI-1859, respectively, on cullin 3 neddylation (neddylation of cullin 3 [5]): > 300 times
effect on the neddylation of cullin 3 (neddylation of cullin 3 [5]; 100–300 nM): no significant effect
accumulation of NRF2 protein (NRF2 protein): no obvious accumulation

CCC(=O)N[C@@H](Cc1nc2ccc(C(C)C)cc2s1)C(=O)N[C@H](CNC(=O)/C=C/CN(C)C)C1CCCCC1 [compound 5]
covalent complex formation / reaction kinetics with DCN1 protein (in words) (DCN1): reaction kinetics similar to that of 3
Percentage of the formation of covalent complex with DCN1 protein (DCN1; [7]): 0%
Percentage of the formation of covalent complex with DCN1 protein (DCN1; 60 min (1 h) incubation): 0%
Percentage of the formation of covalent complex with DCN1 protein (DCN1; 180 min (3 h) incubation): 2%
Percentage of the formation of covalent complex with DCN1 protein (DCN1; 720 min (12 h) incubation): 30%

C=C(CCN1CCOCC1)C(=O)NC[C@@H](NC(=O)[C@H](Cc1nc2ccc(C(C)C)cc2s1)NC(=O)CC)C1CCCCC1 [compound 8]
covalent complex formation / reaction kinetics with DCN1 protein (in words) (DCN1): much slower reaction kinetics than 6 and 7
Percentage of the formation of covalent complex with DCN1 protein (DCN1; 60 min (1 h) incubation): 15%
Percentage of the formation of covalent complex with DCN1 protein (DCN1; 720 min (12 h) incubation): 100%
potency in inhibition of cullin 3 neddylation compared with DI-591 (neddylation of cullin 3 [6]): much more potent than DI-591

C=C(CCN(C)C)C(=O)NC[C@@H](NC(=O)[C@H](Cc1nc2ccc(C(C)C)cc2s1)NC(=O)CC)C1CCCCC1 [compound 9]
covalent complex formation / reaction kinetics with DCN1 protein (in words) (DCN1): much slower reaction kinetics than 6 and 7
Percentage of the formation of covalent complex with DCN1 protein (DCN1; 60 min (1 h) incubation): 30%
Percentage of the formation of covalent complex with DCN1 protein (DCN1; 180 min (3 h) incubation): 50%
Percentage of the formation of covalent complex with DCN1 protein (DCN1; 720 min (12 h) incubation): 100%
potency in inhibition of cullin 3 neddylation compared with DI-591 (neddylation of cullin 3 [6]): much more potent than DI-591

C=C(Cn1ccnc1)C(=O)NC[C@@H](NC(=O)[C@H](Cc1nc2ccc(C(C)C)cc2s1)NC(=O)CC)C1CCCCC1 [compound 10]
covalent complex formation / reaction kinetics with DCN1 protein (in words) (DCN1): slower reaction kinetics with DCN1 than DI-1548 and DI-1859
Percentage of the formation of covalent complex with DCN1 protein (DCN1; [7]): 80%
Percentage of the formation of covalent complex with DCN1 protein (DCN1; 60 min (1 h) incubation): 100%
Percentage of the formation of covalent complex with DCN1 protein (DCN1; 180 min (3 h) incubation): 100%
Percentage of the formation of covalent complex with DCN1 protein (DCN1; 720 min (12 h) incubation): 100%
potency in inhibition of cullin 3 neddylation compared with DI-1548 (neddylation of cullin 3 [5]; in cell, Supplementary Fig. 12): ten times less potent than DI-1548
